Several values for one entry are separate records, joined by “and”; a condition that tells them apart may be missing. Equal values may be shown once. Entries after “also recorded” stand apart in the source; their conditions may differ. Read-outs that look alike come from different tables or passages of the source.
Tests used:
[1] = test system: fungal androgen receptors; assay: Fungal androgen receptor inhibition, Fusarium; assay type: binding
Source text: (§1) In the second series of experiments using the compound of the invention 2-(5-hydroxyhept-1-yl) bicyclo[3.3.0]octan-7-one {hexahydro-4-(5-hydroxyheptyl)-2-(1H)-pentalenone} upon zeralenone and zearalanol production, zearalenone and zearalanol were chemically obtained from Sigma Chemical Co., St. Louis, Mo.

[2] = test system: progesterone receptor; assay: Fungal progesterone receptor inhibition, Fusarium; assay type: binding
[3] = test system: progesterone receptor; assay: Progesterone receptor inhibition, Fusarium calorum; assay type: binding
Source text: as §1

[4] = test system: Saccharomyces cerevisiae; assay: Fermentation: ethanol production; assay type: cell-based
[5] = test system: estrogen receptor; assay: Estrogen receptor inhibition, Candida; assay type: binding
[6] = test system: progesterone receptor; assay: Progesterone receptor inhibition, Torulopsis; assay type: binding
[7] = test system: androgen receptor; assay: Androgen receptor inhibition, Coccodia; assay type: binding
[8] = test system: estrogen receptor; assay: Estrogen receptor inhibition, Coccodia; assay type: binding
[9] = test system: androgen receptor; assay: Androgen receptor inhibition, Trichophyton; assay type: binding
[10] = test system: estrogen receptor; assay: Estrogen receptor inhibition, Trichophyton; assay type: binding
[11] = test system: progesterone receptor; assay: Progesterone receptor inhibition, Trichophyton; assay type: binding
[12] = test system: progesterone receptor; assay: Progesterone receptor inhibition, Blastomyces; assay type: binding
[13] = test system: estrogen receptor; assay: Estrogen receptor inhibition, Norcardia; assay type: binding
[14] = test system: estrogen receptor; assay type: binding, Histoplasma
[15] = test system: fungal infections; assay: Efficacy studies and toxicity studies
Source text: At the present time, therapies for fungal infections are not satisfactory and are frequently dangerous.

[16] = test system: androgen receptor; assay: Androgen receptor inhibition, Saccharomyces cerevisiae strains; conditions: DHT:anti-androgen 1:1,000
[17] = test system: collagen:elastin formation; assay: Collagen synthesized and elastic increase compared to control, by patient; assay type: cell-based, human; conditions: anti-androgen to DHT 1,000:1
[18] = test system: progesterone receptor; assay: Effect on progesterone receptors in melanoma; assay type: binding; conditions: 1:1000 DHT to compound
[19] = biological target: T1, progesterone receptor (keloid cytosol) (Homo sapiens, UniProt P06401); assay: Keloid cytosol steroid binding assay, progesterone
T1 construct: [3H]promegestone (R5020) tracer

[20] = test system: estrogen receptor; assay: Estrogen receptor inhibition in skin/tissue fibroblast lines; assay type: cell-based, human; conditions: DHT:compound 1:1,000; for interference with / inhibition of estrogen receptors: more than 400 experiments
Experimental: (§2) Explants of both normal and keloid skin and tissue fibroblast lines were established.
(§3) Hormonal receptor analyses on these tissues were performed by the method of Griffith et al., Journal of Clinical Investigation, Vol. 57, page 1340 (1978).

[21] = biological target: T2, progesterone receptor (Homo sapiens, UniProt P06401); assay: Progesterone receptor inhibition in skin/tissue fibroblast lines; assay type: cell-based; conditions: DHT:compound 1:1,000
T2 construct: Skin fibroblast tissue lines from surgical explants were obtained; endogenous in cells; host or cells: skin fibroblast lines from surgical explants (keloid, scalp, forearm)
T2 sequence (P06401 1-933): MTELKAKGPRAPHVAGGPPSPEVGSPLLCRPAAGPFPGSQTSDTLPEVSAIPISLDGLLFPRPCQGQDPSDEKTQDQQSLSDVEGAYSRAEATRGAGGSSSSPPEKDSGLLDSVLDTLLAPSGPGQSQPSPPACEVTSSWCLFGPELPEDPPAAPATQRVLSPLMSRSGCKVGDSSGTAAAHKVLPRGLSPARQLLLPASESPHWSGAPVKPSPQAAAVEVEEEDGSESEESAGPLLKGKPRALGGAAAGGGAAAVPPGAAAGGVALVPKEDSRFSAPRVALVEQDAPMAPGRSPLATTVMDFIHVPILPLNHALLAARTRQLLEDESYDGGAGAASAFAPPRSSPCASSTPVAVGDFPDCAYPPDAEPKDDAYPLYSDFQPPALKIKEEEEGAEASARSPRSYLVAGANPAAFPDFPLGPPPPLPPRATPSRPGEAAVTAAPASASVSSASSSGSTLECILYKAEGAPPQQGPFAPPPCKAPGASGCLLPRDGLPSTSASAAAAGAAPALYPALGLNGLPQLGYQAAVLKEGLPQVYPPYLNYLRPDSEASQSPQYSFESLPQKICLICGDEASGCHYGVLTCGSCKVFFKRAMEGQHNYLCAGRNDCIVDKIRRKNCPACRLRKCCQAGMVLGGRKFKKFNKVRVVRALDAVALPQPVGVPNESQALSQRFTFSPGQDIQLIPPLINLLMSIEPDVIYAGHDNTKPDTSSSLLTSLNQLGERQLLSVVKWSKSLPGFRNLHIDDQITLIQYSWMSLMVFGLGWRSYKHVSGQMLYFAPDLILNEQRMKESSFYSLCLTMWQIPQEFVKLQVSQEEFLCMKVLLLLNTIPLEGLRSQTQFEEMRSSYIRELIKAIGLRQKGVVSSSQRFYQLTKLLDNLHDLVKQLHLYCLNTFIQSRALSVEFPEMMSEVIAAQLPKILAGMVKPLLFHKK
Experimental: as §2, §3

[22] = test system: progesterone receptors; assay: Effect on progesterone receptors in breast capsule tissue; assay type: binding, human; conditions: breast capsule / hard band tissue
Experimental: (§4) "Hard fibrous band" formation was retarded around breast implants following augmentation surgery.
The tissues were evaluated, with appropriate controls, for effects by the novel anti-androgen.

[23] = test system: hard fibrous band; assay: Hard fibrous band formation around breast implants following augmentation surgery; set-up: species or system human
Source text: as §4

[24] = listed as 2-(5-methoxyhept-1-yl)bicyclo[3.3.0]octan-7-one
[25] = keloid, listed as 2-(5-methoxyhept-1-yl)bicyclo[3.3.0]octan-7-one

With `CCC(O)CCCCC1CCC2CC(=O)CC12` (centres unmarked) [Compound IV] the “fungal androgen receptors blocked” value ([1]; DHT:compound 1:1,000) was 9-83%, the “% Androgen Receptor Inhibition” value ([1]; fungal hormone Zeralanol) was 84% and the “% Androgen Receptor Inhibition” value ([1]; fungal hormone Zeralenone) was 79%. The “blocking of interaction of fungal hormone and its hormonal receptors” value ([1]; hormone:anti-androgen 1:1 to 1:1,000) was 26-90%, the “% Progesterone Receptor Inhibition” value ([2]; fungal hormone Zeralanol) was 0% and the “% Progesterone Receptor Inhibition” value ([2]; fungal hormone Zeralenone) was 0%. The “% Progesterone Receptor Inhibition” value ([3]; DHT:anti-androgen 1:1) was 7%, the “% Progesterone Receptor Inhibition” value ([3]; DHT:anti-androgen 1:10) was 9% and the “depression of ethanol production” value ([4]; other strains) was “one-eighth its normal rate”. For the same molecule, the “increase of ethanol production” value ([4]; some strains) was “as much as three times the natural rate”, the “% Estrogen Receptor Inhibition” value [5] was 0% and the “% Progesterone Receptor Inhibition” value [6] was 6%. For the same molecule, the “% Androgen Receptor Inhibition” value [7] was 67%, the “% Estrogen Receptor Inhibition” value [8] was 0% and the “% Androgen Receptor Inhibition” value [9] was 81%. For the same molecule, the “% Estrogen Receptor Inhibition” value [10] was 0%, the “% Progesterone Receptor Inhibition” value [11] was 7% and the “% Progesterone Receptor Inhibition” value [12] was 3%. For the same molecule, the “% Estrogen Receptor Inhibition” value [13] was 0%, the “% Estrogen Receptor Inhibition” value [14] was 0% and the efficacy studies [15] was “efficacious”. The toxicity studies [15] was “safe”, the “% Androgen Receptor Inhibition” value ([16]; strain 1) was 16% and the “% Androgen Receptor Inhibition” value ([16]; strain 2) was 37%. The “% Androgen Receptor Inhibition” value ([16]; strain 3) was 92%, the “% Androgen Receptor Inhibition” value ([16]; strain 4) was 76% and the “% Androgen Receptor Inhibition” value ([16]; strain 5) was 39%. For the same molecule, the “% Androgen Receptor Inhibition” value ([16]; strain 6) was 59% and the “% Androgen Receptor Inhibition” value ([16]; strain 7) was 87%.

With `CCC(CCCCC1CCC2CC(=O)CC12)OC` (centres unmarked) [Compound V, 2-(5-Methoxyhept-1-yl)bicyclo[3.3.0]octan-7-one] the “Fold Elastic Increase Compared to Control” value ([17]; patient 1) was 1.4 Fold, the “Fold Elastic Increase Compared to Control” value ([17]; patient 2) was 4.7 Fold and the “Fold Elastic Increase Compared to Control” value ([17]; patient 3) was 2.0 Fold. The “Fold Elastic Increase Compared to Control” value ([17]; patient 4) was 4.0 Fold, the “Fold Elastic Increase Compared to Control” value ([17]; patient 5) was 6.0 Fold and the “Fold Elastic Increase Compared to Control” value ([17]; patient 6) was 2.0 Fold. For the same molecule, the “Fold Elastic Increase Compared to Control” value ([17]; patient 7) was 3.0 Fold, the “Fold Elastic Increase Compared to Control” value ([17]; patient 8) was 3.0 Fold and the “Fold Elastic Increase Compared to Control” value ([17]; patient 9) was 4.0 Fold. For the same molecule, the “Fold Elastic Increase Compared to Control” value ([17]; patient 10) was 6.0 Fold, the “Fold Elastic Increase Compared to Control” value ([17]; patient 11) was 3.0 Fold and the “effect on progesterone receptors in melanoma tissue” value [18] was “no significant effect”. The “effect on binding of progesterone” value [19] was “no effect”, the “interference with / inhibition of estrogen receptors” value [20] was “without significant interference” and the “interference with / inhibition of estrogen receptors” value [20, 24] was “None of the tests showed any measurable estrogen receptor inhibition; also recorded: without significant interference”. For the same molecule, the “% Estrogen Receptor Inhibition” value ([20]; forearm) was 0%, the “% Estrogen Receptor Inhibition” value ([20]; keloid) was 0% and the “% Estrogen Receptor Inhibition” value [20, 25] was “no measurable”. For the same molecule, the “% Estrogen Receptor Inhibition” value ([20]; scalp) was 0%, the “interference with progesterone receptors” value ([21]; more than 400 experiments) was “without significant interference” and the “% Progesterone Receptor Inhibition” value ([21]; forearm) was 4%. For the same molecule, the “% Progesterone Receptor Inhibition” value ([21]; keloid) was 0%, the “% Progesterone Receptor Inhibition” value [21, 25] was “no measurable” and the “% Progesterone Receptor Inhibition” value ([21]; scalp) was 7% and 0% and 3%. The “effect on progesterone receptors” value [22] was “without any significant effects”, the “effect on progesterone receptors” value [22, 24] was “no significant effects” and the “hard fibrous band formation around breast implants” value [23] was “retarded”.
